Assays:
[1] = tested on: 7 Gram- bacterial strains; experiment: Agar dilution test of undecyl alcohol; type: cell-based; conditions: emulsified in Tween 80, up to 300 mcg/ml
Experimental: (§1) To ascertain whether the antimicrobial activity was due to the undecyl alcohol (a possible product from the hydrolysis of the undecyl esters, such as e.g. ST 722 and ST 712), different "in vitro" tests were performed to overcome the difficulties stemming from the insolubility of the undecyl alcohol in the assay medium.
(§2) To circumvent this problem, three different experimental approaches were chosen obtaining the following results:
1) Undecyl alcohol emulsified in Tween 80 and tested up to the concentration of 300 mcg/ml in agar seeded with 7 Gram- bacterial strains (Agar dilution test).

[2] = tested on: 4 Gram- bacterial strains; experiment: Agar diffusion test of undecyl alcohol; type: cell-based; conditions: absolute (0.05 ml)
Experimental: as §1, §2
2) Undecyl alcohol absolute (0.05 ml) in agar seeded with 4 Gram- bacterial strains (Agar diffusion test).

[3] = tested on: 4 Gram- bacterial strains and 1 Gram+ bacterial strain; experiment: Broth dilution test of undecyl alcohol; type: cell-based; conditions: emulsified in Tween 80, up to 400 mcg/ml
Experimental: as §1, §2
3) Undecyl alcohol emulsified in Tween 80 and tested up to the concentration of 400 mcg/ml in broth seeded with 4 Gram- bacterial strains and 1 Gram+ bacterial strain (Broth dilution test).

[4] = Assessment of behaviour and mortality in mice (Irwin's method); parameters: species or system mouse (male Crl:(CD-1)(ICR)BR); conditions: mouse, in vivo; oral, dose 1000, 4 animals/dose
Experimental: (§3) The assessment of normal behaviour in mice was carried out following S. Irwin's method (Psychopharmacologia, 13, 222 [1968]). This method allows alterations in some behavioural, neurophysiologic and neurovegetative parameters to be detected, which are directly observable by the researcher. The study was conducted using male Crl:(CD-1)(ICR)BR mice (Charles River--Italy) weighing 22-25 g, following oral administration of the compounds suspended in carboxymethylcellulose (0.5% by weight in H2 O) to groups of 4 animals/dose.
(§4) The animals were continously kept under observation for five hours following treatment and twice a day in the subsequent five days. Mortality was also observed during the overall test period.

mice = experiment: as above; parameters: species or system mouse (male Crl:(CD-1)(ICR)BR); conditions: mouse, in vivo, po
Experimental: as §3, §4

[5] = tested on: Enterobacter aerogenes (UM); experiment: MIC in broth, Gram- strains; type: cell-based; conditions: Klebsiella aerogenes, 18 h, read-out: Minimal Inhibitory Concentration (MIC)
Experimental: (§5) MICs were determined by a standard microdilution test, using serial two-fold dilutions of the substances in Mueller-Hinton broth.
(§6) The inoculum was prepared from an overnight culture in Mueller-Hinton broth matching the 0.5 Mc Farland (turbidity) standard (BRAY W. E., Clinical Laboratory Methods, 5th Ed. C. V. MOSBY, St. Louis, Mo. 1957), and was adjusted to a final concentration of 5.0×10^4 colony-forming units/ml.
(§7) Equal volumes (0.1 ml) of both bacterial suspensions and substance solutions were distributed in microtiter plates (Falcon, 96 wells, round bottom), and then placed in a humidified incubator (37° C.) for 18 hours.
(§8) Evaluation of the Minimal Inhibitory Concentration (MIC) in broth of 16 new substances for Gram- bacterial strains.
(§9) The following strains were used: Enterobacter (1), Escherichia (3), Klebsiella (3), Proteus (3); Pseudomonas (2); Salmonella (2), Serratia (1).

Escherichia coli (76 F) = experiment: MIC in broth, Gram- strains; type: cell-based; conditions: 18 h, E. coli (76 F), read-out: Minimal Inhibitory Concentration (MIC)
Experimental: as §5, §6, §7, §8, §9

Escherichia coli (92 F) = experiment: MIC in broth, Gram- strains; type: cell-based; conditions: 18 h, E. coli (92 F), read-out: Minimal Inhibitory Concentration (MIC)
Experimental: as §5, §6, §7, §8, §9

Klebsiella oxytoca (552) = experiment: MIC in broth, Gram- strains; type: cell-based; conditions: 18 h, read-out: Minimal Inhibitory Concentration (MIC)
Experimental: as §5, §6, §7, §8, §9

[6] = tested on: Klebsiella pneumoniae (7823); experiment: MIC in broth, Gram- strains; type: cell-based; conditions: 18 h, read-out: Minimal Inhibitory Concentration (MIC)
Experimental: as §5, §6, §7, §8, §9

Proteus mirabilis (32) = experiment: MIC in broth, Gram- strains; type: cell-based; conditions: 18 h, read-out: Minimal Inhibitory Concentration (MIC)
Experimental: as §5, §6, §7, §8, §9

Proteus vulgaris (UM) = experiment: MIC in broth, Gram- strains; type: cell-based; conditions: 18 h, read-out: Minimal Inhibitory Concentration (MIC)
Experimental: as §5, §6, §7, §8, §9

[7] = tested on: Pseudomonas aeruginosa (10 E); experiment: MIC in broth, Gram- strains; type: cell-based; conditions: 18 h, read-out: Minimal Inhibitory Concentration (MIC)
Experimental: as §5, §6, §7, §8, §9

[8] = tested on: Pseudomonas aeruginosa (3 E); experiment: MIC in broth, Gram- strains; type: cell-based; conditions: 18 h, read-out: Minimal Inhibitory Concentration (MIC)
Experimental: as §5, §6, §7, §8, §9

[9] = tested on: Salmonella typhimurium (D.S.); experiment: MIC in broth, Gram- strains; type: cell-based; conditions: Salmonella enterica, 18 h, read-out: Minimal Inhibitory Concentration (MIC)
Experimental: as §5, §6, §7, §8, §9

[10] = tested on: Serratia marcescens (A/1); experiment: MIC in broth, Gram- strains; type: cell-based; conditions: 18 h, read-out: Minimal Inhibitory Concentration (MIC)
Experimental: as §5, §6, §7, §8, §9

Gram- bacterial strains = experiment: Mean MIC in broth and resistant strain number, Gram- strains; type: cell-based; conditions: 18 h, read-out: Mean MIC values
Experimental: as §5, §6, §7, §8, §9

[11] = tested on: Helicobacter pylori NCTC 11637; experiment: MIC in agar (agar dilution); type: cell-based
Experimental: (§10) In this experiment the activity of ST 722 and ST 712 against Campylobacter and Helicobacter was investigated.
(§11) Campylobacter fetus ATCC 27374, Campylobacter coli LI 048, Campylobacter jejuni 84-ISS, and Helicobacter pylori NCTC 11637.
(§12) The culture medium was Columbia agar base supplemented with 7% (V/V) defribinated horse blood (DHB) for Campylobacter strains, and the same medium additioned with Vitox (Oxoid) for Helicobacter strain.
(§13) The Campylobacter and Helicobacter strains, preserved at -80° C. in DHB containing 10% (V/V) glycerol, were thawed and grown, in their respective culture medium, in culture flasks, which were incubated for 48 hours at 37° C. in a 10% CO2 atmosphere. After this first growth cycle, the bacteria were allowed to go through a second growth cycle in the same conditions as above.
The bacterial "patina" was then harvested by resuspension in 4-5 ml of Mueller-Hinton broth, the turbidity of which was then assessed according to Mc Farland's criteria (BRAY W. E., Clinical Laboratory Methods, 5th Ed. C. V. MOSBY, St. Louis, Mo. 1957). […]
(§14) With a Steers-type multipoint inoculator (STEERS E., FOLTZ E. L., GRAVES S., RIDEN J., 1959. Inocula-replicating apparatus for routine testing of antibacterial susceptibility to antibiotics. Antibiot. Chemoter. 9: 307-311) 1-μl volumes of the above standardized suspensions were spot-transferred into the wells of a 96-well microtiter plate, which had previously been filled with 0.2 ml/well of Mueller-Hinton agar 5% DHB, containing the test substances at different concentrations.
(§15) The plates was then incubated for 48/72 hours at 37° C. in a 10% CO2 atmosphere.

[12] = tested on: Campylobacter coli LI 048; experiment: MIC in agar (agar dilution); type: cell-based
Experimental: as §10, §11, §12, §13
(§16) The bacterial "patina" was then harvested by resuspension in 4-5 ml of Mueller-Hinton broth, the turbidity of which was then assessed according to Mc Farland's criteria (BRAY W. E., Clinical Laboratory Methods, 5th Ed. C. V. MOSBY, St. Louis, Mo. 1957).
(§17) The Helicobacter suspension was adjusted to an approximate concentration of 1.0×10^9 and 1.0×10^8 organisms/ml, while the Campylobacter suspension was adjusted to 1.0×10^7 and 1.0×10^6 organisms/ml.
as §14, §15

[13] = tested on: Campylobacter fetus ATCC 27374; experiment: MIC in agar (agar dilution); type: cell-based
Experimental: as §10, §11, §12, §13, §16, §17, §14, §15

[14] = tested on: Campylobacter jejuni 84-ISS; experiment: MIC in agar (agar dilution); type: cell-based
Experimental: as §10, §11, §12, §13, §16, §17, §14, §15

For CCCCCCCCCCCO [Undecyl alcohol, undecyl alcohol], the antibacterial activity [1] was “no activity”, the antibacterial activity [2] was “no activity” and the antibacterial activity [3] was “no activity”.

In the case of CCCCCCCCCCCOC(=O)CC(C[N+](C)(C)C)OC(=O)C(C)C [ST 712, Isobutyryl-L-Carnitine Undecyl Ester Chloride], the mortality at 120 h [4] is reported as 0%, the Symptoms (mice) is reported as “NONE” and the MIC [5] is reported as 25 µg/mL. The MIC (Escherichia coli (76 F)) was 25 µg/mL, the MIC (Escherichia coli (92 F)) was 25 µg/mL and the MIC (Klebsiella oxytoca (552)) was 12.5 µg/mL. The MIC [6] was 12.5 µg/mL, the MIC (Proteus mirabilis (32)) was > 100 µg/mL and the MIC (Proteus vulgaris (UM)) was 100 µg/mL. It also gave an MIC [7] of 50 µg/mL, an MIC [8] of 50 µg/mL and an MIC [9] of 25 µg/mL. It also gave an MIC [10] of 50 µg/mL, an MIC (Gram- bacterial strains) of 36.4 µg/mL and an MIC ([11]; Helicobacter pylori, NCTC11637, I = inoculum of 1.0 × 10^5 cells/ml, read-out: MIC in agar) of 3.12 µg/mL. The MIC in agar ([11]; II = inoculum of 1.0 × 10^6 cells/ml) was 3.12 µg/mL, the “antibacterial activity for Helicobacter and Campylobacter” value ([11]; agar, Helicobacter and Campylobacter strains) was “possess an antibacterial activity” and the MIC ([12]; Campylobacter coli, LI048, I = inoculum of 1.0 × 10^3) was 6.25 µg/mL. The MIC in agar ([12]; II = inoculum of 1.0 × 10^4) was 6.25 µg/mL, the MIC ([13]; Campylobacter fetus, ATCC27374, I = inoculum of 1.0 × 10^3) was 100 µg/mL and the MIC in agar ([13]; II = inoculum of 1.0 × 10^4) was 100 µg/mL. For the same molecule, the MIC ([14]; I = inoculum of 1.0 × 10^3) was 25 µg/mL and the MIC ([14]; II = inoculum of 1.0 × 10^4) was 50 µg/mL.

Source: patent publication US5498632A, “Esters of acyl carnitines with long-chain aliphatic alcohols and pharmaceutical compositions containing same having antibacterial activity” (Sigma-Tau Industrie Farmaceutiche Riunite S.p.A., priority 1992, dated 1996)
